Assay results: patent EP0880540B1, “17-BETA-CYCLOPROPYL(AMINO/OXY) 4-AZA STEROIDS AS ACTIVE INHIBITORS OF TESTOSTERONE 5-ALPHA-REDUCTASE AND C17-20-LYASE” (Aventis Pharmaceuticals Inc., priority 1996, dated 1997)

Experiments:
[1] = biological target: T1, cynomolgus monkey C17,20 lyase (Macaca fascicularis, UniProt Q2XVA1); test: In vitro C17,20 lyase assay, testicular microsomes; format: biochemical; details: mean of duplicates
T1 construct: microsomal preparations of the enzyme from testicular tissue; from tissue; host or cells: cynomolgus monkey testes, microsomes
T1 sequence (Q2XVA1 1-508): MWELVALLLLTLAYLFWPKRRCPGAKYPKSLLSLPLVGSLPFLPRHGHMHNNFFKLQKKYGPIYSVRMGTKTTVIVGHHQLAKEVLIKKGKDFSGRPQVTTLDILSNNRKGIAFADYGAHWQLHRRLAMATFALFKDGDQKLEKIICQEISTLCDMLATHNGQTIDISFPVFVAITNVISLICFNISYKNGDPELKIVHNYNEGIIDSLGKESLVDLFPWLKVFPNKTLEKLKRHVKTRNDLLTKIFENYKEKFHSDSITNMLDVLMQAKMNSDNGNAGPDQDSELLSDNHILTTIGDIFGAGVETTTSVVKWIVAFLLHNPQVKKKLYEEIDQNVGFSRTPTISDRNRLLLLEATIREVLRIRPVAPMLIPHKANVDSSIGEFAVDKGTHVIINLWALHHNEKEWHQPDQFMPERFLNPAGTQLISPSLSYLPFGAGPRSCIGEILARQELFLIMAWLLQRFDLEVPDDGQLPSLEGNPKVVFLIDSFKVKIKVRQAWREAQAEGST
Protocol: In vitro C17,20 lyase assays: Compounds were tested for inhibition of cynomolgus monkey C17,20 lyase in vitro using microsomal preparations of the enzyme from testicular tissue. Testes were removed from anesthetized animals and flash frozen in liquid nitrogen. Microsomes were isolated as described in Schatzman et al., Anal. Biochem. 175, 219-226 (1988). The compound to be tested was dissolved in dimethyl sulfoxide and diluted in 0.05 M potassium phosphate buffer, pH 7.4, to give the desired concentrations of test compound, in an amount which contributed 0.1% v/v DMSO to the total assay volume. Assays contained 0.05 M potassium phosphate buffer, pH 7.4, an NADPH regenerating system (1 mM NADPH, 5 mM glucose-6-phosphate, 1 IU/mL glucose-6-phosphate dehydrogenase), test compound, substrate and microsomal protein in a total volume of 0.2 mL. Control assays contained all components, including dimethyl sulfoxide, but not test ccmpound. All assays were performed in duplicate. The test compound was incubated with 20 to 62 µg/mL microsomal protein, buffer, and the NADPH regenerating system described above at 34°C for 0 or 40 minutes. Aliquots of 180 µL were then removed and assayed for enzyme activity by addition to 7-[^3H]-17α-hydroxypregnenolone (11.2 mCi/mmole; 0.2 µCi per assay) plus unlabeled 17α-hydroxypregnenolone dissolved in DMSO, contributing 2.5% v/v to the final assay mix, and phosphate buffer to give a total substrate concentration of 0.05 µM (=Km) per assay and subsequent incubation at 34°C for 6 minutes. Each assay was terminated by addition of 5 mL of chloroform:methanol (2:1). Carrier steroids representing substrates and produces (17α-hydroxypregnenolone, dehydroepiandrosterone, and androst-5-ene-3β,17β-diol) and 0.8 mL of distilled, deionized water were also added at this time. The steroids were extracted by the method of Moore and Wilson (Methods in Enzymol., eds. O. Malley, B.W. and Hardman, J.G. 36, 1975, pp. 466-474). The organic phase containing the steroids was evaporated using nitrogen gas, the residues dissolved in 18% tetrahydrofuran (v/v) in hexane, and the steroids were separated by HPLC on a Si60 (5 µm) column (250 x 4 mm) using a gradient of 18-22% tetrahydrofuran (v/v) in hexane. Radioactivity in the steroid peaks was measured using a Radiomatic® Model ES or Model A515 Flo-One® detector.
The enzyme activity for each assay was calculated from the percent conversion of substrate to products, and the results were expressed as percent inhibition of control. The following results were obtained, wherein the values indicated are the mean of duplicate determinations: Table 1: […]

PC-82 Human Tumor = test: PC-82 human tumor growth in nude mice; format: in vivo, male nude mice; details: MDL 103432 and MDL 105831 50 mg/kg B.I.D., MDL 15910 15 mg/kg B.I.D., per os; for Tumor Growth in PC-82 Human Tumor in Male Nude Mice, Day 7 / Tumor Growth in PC-82 Human Tumor in Male Nude Mice, Day 15 / Tumor Growth in PC-82 Human Tumor in Male Nude Mice, Day 21 / Tumor Growth in PC-82 Human Tumor in Male Nude Mice, Day 28 / Tumor Growth in PC-82 Human Tumor in Male Nude Mice, Day 35 / Tumor Growth in PC-82 Human Tumor in Male Nude Mice, Day -4: corrected group mean; for Tumor Growth in PC-82 Human Tumor in Male Nude Mice, Day -4: Day -4 (before treatment); for Δv/Δt (day 35-day 7): average tumor growth over 28 days from corrected group means
Source text: As described in van Steenbrugge, G.J. et al., J. Urol 131: 812-817 (1984) van Steenbrugge G.J. et al., The Prostate 11: 195-210 (1987) and Redding, T.W. et al., Cancer Research 52, 2538-2544 (1992), male nude mice (Hsd:athymic, Nude-nu) were obtained from Harlan Sprague Dawley. Mice were housed in sterilized micro-isolators and fed autoclaved ABLE® rodent chow (Purina Mills Inc., St. Louis, MO) and deionized water, adlibitum. Tumor-donating mice were first anesthetized using sodium pentobarbital and then sacrificed by cervical dislocation. The tumor was subsequently excised and placed in a petri dish containing ice-cold Hanks balanced salt solution. Tumors were cut into 2-3 mm cubes for implantation. Recipient animals were first anesthetized with 50 mg/kg pentobarbital, then implanted, by use of a trocar, with tumor fragments (one per mouse) in the dorsal area. Animals were separated into two control groups, one with vehicle alone and the other castrated, and the treatment groups, where n is the number of animals in each group.
Animals were selected for treatment groups based on tumor size. Each test compound was prepared as a solution or suspension in a lecithin vehicle (L-α-phosphatidylcholine type XV-E) containing methylparaben and propylparaben at a dose volume of 10 cc/kg. Animals were treated for 42 days by oral gavage (per os) seven days per week. Twenty-four hours after the last treatment the animals were euthenized by CO2 and tumors were removed and weighed. During the study period, mice were weighed and palpated weekly for tumors. In Table 5, average tumor growth is determined from the corrected group means over a 28 day period after treatment was started. […] The following animal data was deleted before computation of the corrected mean data in Table 5, Fig. 1: animals 4 and 44; Fig. 2: animals 10, 38 and 42; Fig. 3: Animal 39; Fig. 4: Animals 8, 9 and 49; Fig. 5: Animals 37 and 40 and 41.
Table 5 illustrates the average tumor growth in animals treated with 4-aza-17β-(cyclopropyloxy)-5α-androstan-3-one (MDL 103432; 50 mg/kg B.I.D.) 4-aza-17β-(cyclopropylamino)-androst-5(6)-en-3-one (MDL 105831; 50 mg/kg B.I.D.) and flutamide (MDL 15,910; 15 mg/kg B.I.D.), a known androgen receptor antagonist. The average growth rate of each tested compound relative to the vehicle and castrated controls is consistent with the in vivo inhibition of androgens.

SMILES | inhibition at 0.1 µM ([1]; preincubation 0 min) [%] | inhibition at 0.1 µM ([1]; preincubation 40 min) [%] | inhibition at 1 µM ([1]; preincubation 0 min) [%] | inhibition at 1 µM ([1]; preincubation 40 min) [%] | inhibition at 10 µM ([1]; preincubation 0 min) [%] | inhibition at 10 µM ([1]; preincubation 40 min) [%] | Tumor Growth in PC-82 Human Tumor in Male Nude Mice, Day 7 (PC-82 Human Tumor) [mm^3] | Tumor Growth in PC-82 Human Tumor in Male Nude Mice, Day 15 (PC-82 Human Tumor) | Tumor Growth in PC-82 Human Tumor in Male Nude Mice, Day 21 (PC-82 Human Tumor) [mm^3] | Tumor Growth in PC-82 Human Tumor in Male Nude Mice, Day 28 (PC-82 Human Tumor) [mm^3] | Tumor Growth in PC-82 Human Tumor in Male Nude Mice, Day 35 (PC-82 Human Tumor) [mm^3] | Tumor Growth in PC-82 Human Tumor in Male Nude Mice, Day -4 (PC-82 Human Tumor) [mm^3] | Δv/Δt (day 35-day 7) (PC-82 Human Tumor) [mm^3/day]
CC12CCC3C(CC[C@H]4NC(=O)CCC34C)C1CC[C@@H]2OC1CC1 (stereo partly drawn) [MDL 103,432, 17β-Cyclopropyloxy-4-aza-5α-androstan-3-one] | 23.4 | 20.2 | 33 | 54.2 | 68.3 | 80.2 | 180.2 | 220,2 mm^3 | 288.2 | 385.9 | 427.4 | 122.2 | 8.83
C[C@]12CC[C@H]3[C@@H](CC=C4NC(=O)CC[C@@]43C)[C@@H]1CC[C@@H]2NC1CC1 [MDL 105,831, 17β-Cyclopropylamino-4-aza-androst-5-en-3-one] | 11.4 | 24.6 | 26 | 53.8 | 69.6 | 100 | 188.3 | 254.3 mm^3 | 304.3 | 530.7 | 531.1 | 124.9 | 12.24
